Experiments:
[1] = biological target: T1, hα7-wt nAChR (Homo sapiens, UniProt P36544); assay: Ca2+ flux imaging (FDSS), PAM activity with choline; type: cell-based; conditions: hα7-wt nAChR-expressing GH4C1 cells; potentiation of choline 100 μM; compound 0.01 μM to 30 μM
T1 construct: expressed in transfected cells
Method: Ca^2+ Flux Imaging (FDSS) […]
PAM activity was detected in real time by applying the compound to be tested to the loaded cells along with a α7 nicotinic receptor agonist during constant monitoring of the cellular calcium mobilization by fluorescence in a FDSS. […]
A control response to choline was calculated on each plate from the difference in peak in fluorescence in wells receiving either choline or assay buffer alone. […]
EC50 values (potency), maximal effect (% efficacy), and Hill slopes were estimated by fitting the sigmoidal equation to the data using GraphPad Prism (GraphPad Software, Inc., San Diego, Calif.). An EC50 (or pEC50) was determined as a concentration relating to half the maximal effect, when a clear sigmoidal curve with top plateau was obtained.

[2] = biological target: T1, hα7-wt nAChR; assay: Whole-cell voltage-clamp recording, PAM activity with choline; type: cell-based; set-up: key: Type 1 compounds enhance the effect size of the current elicited by 1 mM choline but minimally alter the kinetics of the receptor.; Type 2 compounds enhance the effect size of the current elicited by 1 mM choline while reducing the rate and/or the extent of desensitization.; Type 3 compounds enhance the effect size of the current elicited by 1 mM choline. When tested at higher concentrations up to 10 μM they completely inhibit desensitization; Type 4 compounds allow for an initial desensitization of the receptor followed by a re-opening of the receptor during agonist application; conditions: qualitative kinetic properties, 1 mM choline, GH4C1 cells
Method: The compounds of the present invention are classified as type 1-4, based on qualitative kinetic properties, as determined by whole-cell voltage-clamp recordings. This classification is based on the effect of an α7 PAM compound, as described hereinbefore, on the signal elicited by an agonist application. In particular, said agonist is choline at a concentration of 1 mM. In a preferred experimental setting, said α7 PAM compound and choline are simultaneously applied to the cell, as described hereinafter. Desensitization as described hereinafter is the closure of the receptor upon activation during the application of the agonist in whole-cell voltage-clamp electrophysiology measurements seen as the reduction of the […] current after initial activation by the agonist.
The definition of the PAM types 1-4 is described hereinafter: • Type 1 compounds enhance the effect size of the current elicited by 1 mM choline but minimally alter the kinetics of the receptor. In particular, the rate and the extent of desensitization, elicited by the agonist, is not affected. […]
The compound of the present invention also has a potentiating effect on the response to choline when measured by whole-cell voltage clamp electrophysiology in GH4C1 cells stably over-expressing the human wild-type α7 receptor, as described hereinafter. […]

T1 sequence (P36544 23-502): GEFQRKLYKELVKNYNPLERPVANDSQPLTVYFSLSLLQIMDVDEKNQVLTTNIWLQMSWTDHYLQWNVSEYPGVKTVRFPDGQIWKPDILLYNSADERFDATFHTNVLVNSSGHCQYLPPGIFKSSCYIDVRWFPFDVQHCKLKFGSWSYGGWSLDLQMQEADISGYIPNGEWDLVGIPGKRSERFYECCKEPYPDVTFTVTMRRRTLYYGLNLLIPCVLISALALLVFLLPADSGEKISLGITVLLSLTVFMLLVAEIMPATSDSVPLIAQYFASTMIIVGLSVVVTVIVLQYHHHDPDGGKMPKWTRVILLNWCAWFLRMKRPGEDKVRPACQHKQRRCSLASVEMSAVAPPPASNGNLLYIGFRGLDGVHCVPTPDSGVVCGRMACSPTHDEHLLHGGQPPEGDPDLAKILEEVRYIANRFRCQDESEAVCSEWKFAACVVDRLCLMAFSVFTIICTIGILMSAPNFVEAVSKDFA

EC50 [1]: 0.309 µM
melting point: 242.28 °C
Compound: CCNC(=O)Cn1nc(Nc2ccc3c(c2)OC(F)(F)O3)nc1-c1cc(C)nc(C)c1 [Compound E1, 2-[3-(2,2-Difluoro-benzo[1,3]dioxol-5-ylamino)-5-(2,6-dimethyl-pyridin-4-yl)-[1,2,4]-triazol-1-yl]-N-ethyl-acetamide]
PAM_type [2]: 2
